For one substance, Kd results are on record in publication PMC7396987, “Biological Activity of Pseudovitamin B12 on Cobalamin-Dependent Methylmalonyl-CoA Mutase and Methionine Synthase in Mammalian Cultured COS-7 Cells” (Molecules, 2020).

In the assay the target is T1, human MS (hMS; recombinant FLAG-tagged methionine synthase) (Homo sapiens, UniProt Q99707).
T1 construct: gene MTR; full-length ORF from human brain cerebral cortex cDNA in p3xFLAG-Myc-CMV (p3xFLAG-hMS), N-terminal 3xFLAG tag kept; expressed in COS-7 cells, apoenzyme in cell homogenate (low endogenous monkey MS background)
In words: activation of apo-MS in cell homogenate, HPLC activity assay, saturation fit. In kind it is biochemical. Conditions: cobalamin reduced by titanium citrate; substrate 5-methyltetrahydrofolate; homogenate of MS cDNA-transfected COS-7 cells grown without OH-Cbl; read-out: apparent Kd.

T1 sequence (Q99707 2-1265 limits assumed): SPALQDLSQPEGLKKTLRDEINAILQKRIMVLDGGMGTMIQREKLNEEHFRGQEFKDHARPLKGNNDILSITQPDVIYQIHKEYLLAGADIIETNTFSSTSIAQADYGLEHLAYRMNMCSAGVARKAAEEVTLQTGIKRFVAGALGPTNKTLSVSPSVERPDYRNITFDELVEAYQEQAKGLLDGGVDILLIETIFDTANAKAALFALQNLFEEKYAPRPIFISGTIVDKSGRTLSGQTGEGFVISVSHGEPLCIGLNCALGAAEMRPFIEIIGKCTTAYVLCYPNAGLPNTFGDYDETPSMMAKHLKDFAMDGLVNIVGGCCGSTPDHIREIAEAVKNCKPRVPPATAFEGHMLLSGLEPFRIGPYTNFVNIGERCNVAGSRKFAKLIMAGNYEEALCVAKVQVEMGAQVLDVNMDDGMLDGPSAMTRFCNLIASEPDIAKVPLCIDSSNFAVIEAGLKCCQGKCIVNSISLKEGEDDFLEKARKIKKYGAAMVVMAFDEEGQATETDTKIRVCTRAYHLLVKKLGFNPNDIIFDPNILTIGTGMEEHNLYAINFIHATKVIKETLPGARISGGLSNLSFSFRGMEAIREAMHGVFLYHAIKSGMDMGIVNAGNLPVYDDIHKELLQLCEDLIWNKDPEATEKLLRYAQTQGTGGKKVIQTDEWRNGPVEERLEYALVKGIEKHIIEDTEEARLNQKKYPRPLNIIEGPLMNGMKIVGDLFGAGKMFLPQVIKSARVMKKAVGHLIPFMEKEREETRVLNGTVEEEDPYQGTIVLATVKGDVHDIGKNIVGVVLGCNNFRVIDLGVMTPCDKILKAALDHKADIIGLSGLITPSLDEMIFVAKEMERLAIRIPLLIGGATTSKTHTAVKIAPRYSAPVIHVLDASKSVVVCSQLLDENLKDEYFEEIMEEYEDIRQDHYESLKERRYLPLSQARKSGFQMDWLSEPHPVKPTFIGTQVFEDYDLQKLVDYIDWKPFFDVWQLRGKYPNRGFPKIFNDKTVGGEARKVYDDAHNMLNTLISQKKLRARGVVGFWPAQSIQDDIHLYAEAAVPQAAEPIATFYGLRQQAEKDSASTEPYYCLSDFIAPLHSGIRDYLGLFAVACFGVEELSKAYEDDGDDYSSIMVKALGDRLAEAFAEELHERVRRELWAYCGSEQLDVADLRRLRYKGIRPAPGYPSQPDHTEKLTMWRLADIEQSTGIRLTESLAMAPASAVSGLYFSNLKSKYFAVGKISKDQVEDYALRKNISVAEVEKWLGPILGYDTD

For (Ade)OH-Cba [compound 6], the Kd is about 26.3 µM.
